Earlier results in patent US9937184B2 (THEOCORP HOLDING COMPANY, LLC, priority 2013, dated 2018).

Assays:
[1] = in vivo
[2] = tested on: UMR 106-01 rat obsteoblast-like cells; conditions: prior art results (Kamagata-Kiyoura 1999)

SMILES | plasma half-life (t1/2) in the bloodstream [1] | proliferation of osteoblast-like cells (UMR 106-01) [2]
Cn1cnc2c1c(=O)[nH]c(=O)n2C [Theobromine, 3,7-dimethyl-2,3,6,7-tetrahydro-1H-purine-2,6-dione] | six | 
Cn1c(=O)c2c(ncn2C)n(C)c1=O [caffeine, 1,3,7-trimethylxanthine] |  | inhibits cell proliferation
